Laboratory results published in US7074785B2, “Δ1-pyrrolines used as pesticides” (Bayer Cropscience AG, priority 2001, dated 2006).
Like-named read-outs stand apart in the source and are kept apart here.

How the values were obtained:
[1] = logP determination by HPLC (reversed-phase C18, EEC Directive 79/831 Annex V.A8); format: physicochemical
Protocol: The logP values stated in the above tables and Preparation Examples are determined in accordance with EEC Directive 79/831 Annex V.A8 by HPLC (High Performance Liquid Chromatography) using a reversed-phase column (C 18). Temperature: 43° C.
In the acidic range at pH 2.3 the determination takes place using 0.1% aqueous phosphoric acid and acetonitrile as the mobile phases; linear gradient from 10% acetonitrile to 90% acetonitrile. Corresponding results are marked in the tables by “a)”
In the neutral range at pH 7.5 the determination takes place using 0.01 molar aqueous phosphate buffer solution and acetonitrile as the mobile phases; linear gradient from 10% acetonitrile to 90% acetonitrile. Corresponding results are marked in the tables by “b)”
Calibration is carried out using unbranched alkan-2-ones (having 3 to 16 carbon atoms), with known logP values (the logP values determined on the basis of the retention times using linear interpolation between two successive alkanones).

[2] = system: army worm (Spodoptera frugiperda) caterpillars; assay: Spodoptera frugiperda test; format: in vivo; details: in Brassica oleracea, 168 h
[3] = system: greenhouse red spider mite (Tetranychus urticae); assay: Tetranychus test (OP resistant/dip treatment); format: in vivo; details: 168 h
Protocol: Tetranychus Test (OP Resistant/Dip Treatment)
Solvent: 7 parts by weight of dimethylformamide
After the desired period of time, the effect in % is determined.

[4] = system: larvae of the mustard beetle (Phaedon cochleariae); assay: Phaedon larvae test; details: in Brassica oleracea, 168 h
[5] = HPLC, acidic range pH 2.3, 0.1% aqueous phosphoric acid/acetonitrile; marked a), read-out: log P (pH 2.3)
[6] = HPLC, neutral range pH 7.5, 0.01 molar phosphate buffer/acetonitrile; marked b), read-out: log P (pH 7.5)
[7] = 100 ppm, cabbage leaves dipped, read-out: Kill rate in % after 7 d
[8] = 100 ppm, bean plants dipped, Tetranychus urticae OP-resistant, read-out: Kill rate in % after 7 d
[9] = reversed-phase C18 HPLC column; HPLC, acidic range pH 2.3, 0.1% aqueous phosphoric acid/acetonitrile; marked a), read-out: log P (pH 2.3)
[10] = reversed-phase C18 HPLC column; HPLC, neutral range pH 7.5, 0.01 molar phosphate buffer/acetonitrile; marked b), read-out: log P (pH 7.5)
[11] = read-out: Kill rate in % after 7 d, 100 ppm, cabbage leaves dipped, Spodoptera frugiperda
[12] = read-out: Kill rate in % after 7 d, 100 ppm, cabbage leaves dipped, Phaedon cochleariae larvae
[13] = read-out: Kill rate in % after 7 d
[14] = read-out: Kill rate in % after 7 d, 100 ppm, bean plants dipped, Tetranychus urticae OP-resistant

SMILES | chromatographic logP [1, 5] | chromatographic logP [1, 6] | pest or weed control at 100 ppm [2, 11] [%] | pest or weed control at 100 ppm [4, 12] [%] | pest or weed control at 100 ppm [3, 14] [%] | other results
CCCCOC(=O)N(C)c1ccc(-c2ccc(C3CCC(c4c(F)cccc4F)=N3)cc2)cc1 (stereo not shown) [Compound 3, n-butyl 4′-[5-(2,6-difluorophenyl)-3,4-dihydro-2H-pyrrol-2-yl]-1,1′-biphenyl-4-yl(methyl)carbamate] | 3.76 | 4.92 |  |  |  | 
O=C1OCCN1c1ccc(-c2ccc(C3CCC(c4c(F)cccc4F)=N3)cc2)cc1 (stereo not shown) [Compound 4, 3-{4′-[5-(2,6-difluorophenyl)-3,4-dihydro-2H -pyrrol-2-yl]-1,1′-biphenyl-4-yl}-1,3-oxazolidin-2-one] |  |  |  |  |  | pest or weed control at 100 ppm [2, 7]: ≥ 95%; pest or weed control at 100 ppm [3, 8]: ≥ 85%; chromatographic logP [1, 9]: 2.13; chromatographic logP [1, 10]: 3.28
O=C(Nc1ccc(-c2ccc(C3CCC(c4c(F)cccc4F)=N3)cc2)cc1)N1CCOCC1 (stereo not shown) [Compound 5, N-{4′-[5-(2,6-difluorophenyl)-3,4-dihydro-2H-pyrrol-2-yl]-1,1 ′-biphenyl-4-yl}-4-morpholinecarboxamide] |  |  |  |  |  | pest or weed control at 100 ppm [2, 7]: ≥ 95%; chromatographic logP [1, 9]: 1.87; chromatographic logP [1, 10]: 2.96
CCCCOC(=O)Nc1ccc(-c2ccc(C3CCC(c4c(F)cccc4F)=N3)cc2)cc1 (stereo not shown) [Compound 9] | 3.44 | 4.6 | ≥ 95 | 100 |  | 
O=C(Nc1ccc(-c2ccc(C3CCC(c4c(F)cccc4F)=N3)cc2)cc1)OC1CCCCC1 (stereo not shown) [Compound 10] | 3.88 | 1.68 | ≥ 95 | 100 |  | 
O=C(Nc1ccc(-c2ccc(C3CCC(c4c(F)cccc4F)=N3)cc2)cc1)N1CCCC1 (stereo not shown) [Compound 11] |  |  |  |  |  | pest or weed control at 100 ppm [4, 13]: 100%; chromatographic logP [1, 9]: 2.11
O=C(Nc1ccc(-c2ccc(C3CCC(c4c(F)cccc4F)=N3)cc2)cc1)N1CCCCC1 (stereo not shown) [Compound 12] |  |  |  |  |  | pest or weed control at 100 ppm [2, 7]: ≥ 95%; pest or weed control at 100 ppm [4, 13]: 100%; chromatographic logP [1, 9]: 2.53; chromatographic logP [1, 10]: 3.71
CCCCN(CC)C(=O)Nc1ccc(-c2ccc(C3CCC(c4c(F)cccc4F)=N3)cc2)cc1 (stereo not shown) [Compound 14] |  |  |  |  |  | pest or weed control at 100 ppm [2, 7]: ≥ 95%; chromatographic logP [1, 9]: 3.18; chromatographic logP [1, 10]: 4.36
CC(C)C(C)OC(=O)Nc1ccc(-c2ccc(C3CCC(c4c(F)cccc4F)=N3)cc2)cc1 (stereo not shown) [Compound 16] | 3.82 | 4.77 |  | ≥ 85 |  | 
CCCC(C)OC(=O)Nc1ccc(-c2ccc(C3CCC(c4c(F)cccc4F)=N3)cc2)cc1 (stereo not shown) [Compound 17] |  | 4.82 | ≥ 95 |  | ≥ 85 | 
CCCCCOC(=O)Nc1ccc(-c2ccc(C3CCC(c4c(F)cccc4F)=N3)cc2)cc1 (stereo not shown) [Compound 18] | 3.87 | 4.89 | ≥ 95 | ≥ 85 |  | 
CCCCCCOC(=O)Nc1ccc(-c2ccc(C3CCC(c4c(F)cccc4F)=N3)cc2)cc1 (stereo not shown) [Compound 19] | 4.46 | 5.26 |  | ≥ 85 | ≥ 85 | 
CC(OC(=O)Nc1ccc(-c2ccc(C3CCC(c4c(F)cccc4F)=N3)cc2)cc1)c1ccccc1 (stereo not shown) [Compound 20] | 3.63 |  | ≥ 95 | ≥ 85 |  | 
CC(C)CCOC(=O)Nc1ccc(-c2ccc(C3CCC(c4c(F)cccc4F)=N3)cc2)cc1 (stereo not shown) [Compound 21] | 3.72 |  | ≥ 95 | ≥ 85 |  | 
O=C(Nc1ccccc1)Nc1ccc(-c2ccc(C3CCC(c4c(F)cccc4F)=N3)cc2)cn1 (stereo not shown) [Compound 22] |  |  |  |  |  | pest or weed control at 100 ppm [2, 7]: ≥ 95%; pest or weed control at 100 ppm [3, 8]: ≥ 85%; chromatographic logP [1, 9]: 2.71; chromatographic logP [1, 10]: 3.98
CC(C)(C)COC(=O)Nc1ccc(-c2ccc(C3CCC(c4c(F)cccc4F)=N3)cc2)cc1 (stereo not shown) [Compound 23] | 3.76 |  | ≥ 95 |  | ≥ 85 | 
CCC(CC)OC(=O)Nc1ccc(-c2ccc(C3CCC(c4c(F)cccc4F)=N3)cc2)cc1 (stereo not shown) [Compound 24] | 3.76 |  |  | ≥ 85 | ≥ 85 | 

SMILES | chromatographic logP [1, 5] | chromatographic logP [1, 6] | pest or weed control at 100 ppm [2, 11] [%] | pest or weed control at 100 ppm [4, 12] [%] | pest or weed control at 100 ppm [3, 14] [%] | other results
O=C(Nc1ccc(-c2ccc(C3CCC(c4c(F)cccc4F)=N3)cc2)cc1)OCCc1ccccc1 (stereo not shown) [Compound 25] | 3.62 | 4.64 | ≥ 95 | ≥ 85 |  | 
O=C(Nc1ccc(-c2ccc(C3CCC(c4c(F)cccc4F)=N3)cc2)cc1)OCc1ccco1 (stereo not shown) [Compound 26] | 3.01 | 4.1 | ≥ 95 |  | ≥ 85 | 
CCCCC(CC)COCCOC(=O)Nc1ccc(-c2ccc(C3CCC(c4c(F)cccc4F)=N3)cc2)cc1 (stereo not shown) [Compound 28] | 5.13 | 5.97 | ≥ 95 |  | ≥ 85 | 
CCCN(CCC)CCOC(=O)Nc1ccc(-c2ccc(C3CCC(c4c(F)cccc4F)=N3)cc2)cc1 (stereo not shown) [Compound 29] | 1.74 | 5.52 |  | ≥ 85 | ≥ 85 | 
CN(C)CCOC(=O)Nc1ccc(-c2ccc(C3CCC(c4c(F)cccc4F)=N3)cc2)cc1 (stereo not shown) [Compound 30] | 1.37 |  | ≥ 95 |  | ≥ 85 | 
COCCOC(=O)Nc1ccc(-c2ccc(C3CCC(c4c(F)cccc4F)=N3)cc2)cc1 (stereo not shown) [Compound 31] | 2.24 | 3.45 | ≥ 95 |  |  | 
CCOCCOC(=O)Nc1ccc(-c2ccc(C3CCC(c4c(F)cccc4F)=N3)cc2)cc1 (stereo not shown) [Compound 32] | 2.52 | 3.75 |  | ≥ 85 | ≥ 85 | 
O=C(Nc1ccc(-c2ccc(C3CCC(c4c(F)cccc4F)=N3)cc2)cc1)OCCOCCOCCCC(F)(F)C(F)(F)F (stereo not shown) [Compound 34] | 3.7 | 4.73 | ≥ 95 |  | ≥ 85 | 
COC(=O)N(C)c1ccc(-c2ccc(C3CCC(c4c(F)cccc4F)=N3)cc2)cc1 (stereo not shown) [Compound 35] | 2.58 | 3.79 |  | ≥ 85 | ≥ 85 | 
CCOC(=O)N(C)c1ccc(-c2ccc(C3CCC(c4c(F)cccc4F)=N3)cc2)cc1 (stereo not shown) [Compound 37] | 2.92 | 4.16 | ≥ 95 | ≥ 85 |  | 
COC(=O)Nc1ccc(Br)cc1 [III-1, methyl 4-bromophenylcarbamate] | 2.27 |  |  |  |  | 
CCCOC(=O)Nc1ccc(Br)cc1 [III-2, n-propyl 4-bromophenylcarbamate] | 3.12 |  |  |  |  | 
CCCCOC(=O)N(C)c1ccc(Br)cc1 [III-3, n-butyl-4-bromophenyl(methyl)carbamate] | 3.88 |  |  |  |  | 
O=C1OCCN1c1ccc(Br)cc1 [III-4, 3-(4-bromophenyl)-1,3-oxazolidin-2-one] |  |  |  |  |  | chromatographic logP [1, 9]: 2.02
O=C(Nc1ccc(Br)cc1)N1CCOCC1 [III-5, N-(4-bromophenyl)-4-morpholinecarboxamide] |  |  |  |  |  | chromatographic logP [1, 9]: 1.75
Nc1ccc(-c2ccc(C3CCC(c4c(F)cccc4F)=N3)cc2)cc1 (stereo not shown) [VII-1, 4′-[5-(2,6-difluorophenyl)-3,4-dihydro-2H-pyrrol-2-yl]-1 ′-biphenyl-4-amine] |  |  |  |  |  | chromatographic logP [1, 9]: 1.25
